Experiments:
[1] = target: T1, NLRP3 (Homo sapiens, UniProt Q96P20); assay: Human whole blood IL-1β release assay (LPS + nigericin, AlphaLisa); assay type: cell-based; design: Plate out 80 μl of whole blood containing 1 μg/ml of LPS; from tissue; host or cells: human whole blood from healthy volunteer donors; conditions: NLRP3 inhibitory activity, 1 μg/ml LPS, 3 hrs compound, nigericin 10 μM 1 hr, read-out: HWB IC50
Description: For systemic delivery, the ability to inhibit NLRP3 when the compounds are present within the bloodstream is of great importance. For this reason, the NLRP3 inhibitory activity of a number of compounds in human whole blood was investigated in accordance with the following protocol.
Human whole blood in Li-heparin tubes was obtained from healthy donors from a volunteer donor panel. • 1. Plate out 80 μl of whole blood containing 1 μg/ml of LPS in 96-well, clear bottom cell culture plate (Corning #3585) • 2. Add 10 μl compound (8 points half-log dilution with 10 μM top dose) or vehicle (DMSO 0.1% FAC) to the appropriate wells • 3. Incubate for 3 hrs at 37° C., 5% CO2 • 4. Add 10 μl nigericin (Sigma #N7143) (10 μM FAC) to all wells • 5. Incubate for 1 hr at 37° C., 5% CO2 • 6. […] IL-1β was measured according to the manufacturer protocol (Perkin Elmer-AlphaLisa IL-1 Kit AL220F-5000) • 8. IC50 data is fitted to a non-linear regression equation (log inhibitor vs response-variable slope 4-parameters)

[2] = target: T1, NLRP3; assay: THP-1 cells pyroptosis assay (LPS + nigericin, resazurin readout); assay type: cell-based; design: Seed THP-1 cells (25,000 cells/well) containing 1.0 μg/ml LPS; host or cells: THP-1 cells; conditions: NLRP3 inhibitory activity, 1.0 μg/ml LPS, 3 hrs compound, nigericin 5 μM 1 hr
Description: THP-1 cells (ATCC #TIB-202) were grown in RPMI containing L-glutamine (Gibco #11835) supplemented with 1 mM sodium pyruvate (Sigma #S8636) and penicillin (100 units/ml)/streptomycin (0.1 mg/ml) (Sigma #P4333) in 10% Fetal Bovine Serum (FBS) (Sigma #F0804). The cells were routinely passaged and grown to confluency (˜10^6 cells/ml). On the day of the experiment, THP-1 cells were harvested and resuspended into RPMI medium (without FBS). The cells were then counted and viability (>90%) checked by Trypan blue (Sigma #T8154). Appropriate dilutions were made to give a concentration of 625,000 cells/ml. To this diluted cell solution was added LPS (Sigma #L4524) to give a […] Final Assay Concentration (FAC). 40 μl of the final preparation was aliquoted into each well of a 96-well plate. The plate thus prepared was used for compound screening.
The following method step-by-step assay was followed for compound screening. • 1. Seed THP-1 cells (25,000 cells/well) containing 1.0 μg/ml LPS in 40 μl of RPMI medium (without FBS) in 96-well, black walled, clear bottom cell culture plates coated with poly-D-lysine (VWR #734-0317) • 2. Add 5 μl compound (8 points half-log dilution, with 10 μM top dose) or vehicle (DMSO 0.1% FAC) to the appropriate wells • 3. Incubate for 3 hrs at 37° C., 5% CO2 • 4. Add 5 μl nigericin (Sigma #N7143) (FAC 5 μM) to all wells • 5. Incubate for 1 hr at 37° C., 5% CO2 • 6. At the end of the incubation period, spin plates at 300×g for 3 mins and remove supernatant • 7. Then add 50 μl of resazurin (Sigma #R7017) (FAC 100 μM resazurin in RPMI medium without FBS) and incubate plates for a further 1-2 hrs at 37° C. and 5% CO2 • 8. Plates were read in an Envision reader at Ex 560 nm and Em 590 nm • 9. IC50 data is fitted to a non-linear regression equation (log inhibitor vs response-variable slope 4-parameters)

T1 sequence (Q96P20 whole entry): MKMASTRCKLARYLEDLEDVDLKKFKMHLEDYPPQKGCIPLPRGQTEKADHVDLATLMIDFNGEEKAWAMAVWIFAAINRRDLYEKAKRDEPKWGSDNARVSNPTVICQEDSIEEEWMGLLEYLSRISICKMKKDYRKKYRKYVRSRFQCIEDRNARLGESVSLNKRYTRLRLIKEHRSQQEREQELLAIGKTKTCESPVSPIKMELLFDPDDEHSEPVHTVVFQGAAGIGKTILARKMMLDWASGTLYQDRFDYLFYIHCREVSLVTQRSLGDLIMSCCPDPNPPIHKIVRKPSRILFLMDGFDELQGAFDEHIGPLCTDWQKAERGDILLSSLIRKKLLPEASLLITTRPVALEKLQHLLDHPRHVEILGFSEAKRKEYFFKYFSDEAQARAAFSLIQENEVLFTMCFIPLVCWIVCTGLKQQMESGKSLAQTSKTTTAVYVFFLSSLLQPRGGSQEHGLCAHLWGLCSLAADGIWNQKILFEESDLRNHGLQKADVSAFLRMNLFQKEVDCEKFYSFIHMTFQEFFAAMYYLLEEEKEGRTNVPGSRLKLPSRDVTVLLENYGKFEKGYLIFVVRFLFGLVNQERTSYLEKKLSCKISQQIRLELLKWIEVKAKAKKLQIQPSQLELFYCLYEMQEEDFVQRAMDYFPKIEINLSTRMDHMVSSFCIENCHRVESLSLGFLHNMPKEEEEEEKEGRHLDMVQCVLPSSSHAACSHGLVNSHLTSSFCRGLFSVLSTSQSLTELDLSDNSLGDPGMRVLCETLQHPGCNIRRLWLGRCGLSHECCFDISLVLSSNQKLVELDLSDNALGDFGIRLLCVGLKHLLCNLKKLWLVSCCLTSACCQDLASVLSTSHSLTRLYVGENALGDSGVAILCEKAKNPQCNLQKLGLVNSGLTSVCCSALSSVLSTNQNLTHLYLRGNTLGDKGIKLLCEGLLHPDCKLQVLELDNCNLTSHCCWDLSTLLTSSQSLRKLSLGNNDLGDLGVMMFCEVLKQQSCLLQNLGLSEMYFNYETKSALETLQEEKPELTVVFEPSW

## CC(C)c1cccc2c1CC(=O)NS(=O)(=O)c1ccn(n1)C(C)(C)COc1cc-2ccn1 [Example 1, 16,16-dimethyl-6-(propan-2-yl)-18-oxa-11λ^6-thia-10,15,20,24-tetraaza-tetracyclo[17-3-1-1^12,15.0^2,7]tetracosa-1(22),2(7),3,5,12(24),13,19(23),20-octaene-9,11,11-trione]
[1]
  IC50: 1 to 5 µM
[2]
  IC50: 1 to 5 µM

## Cc1ccc(C(C)C)c2c1-c1ccnc(c1)OCC(C)(C)n1ccc(n1)S(=O)(=O)NC(=O)C2 [Example 2]
[1]
  IC50: 0.5 to 1 µM
[2]
  IC50: 1 to 5 µM

## CC(C)c1cccc2c1CC(=O)NS(=O)(=O)c1cc(CN(C)C)n(n1)CCCCCOc1cc-2ccn1 [Example 3]
[1]
  IC50: 5 to 10 µM
[2]
  IC50: 5 to 10 µM

## CC(C)c1cccc2c1CC(=O)NS(=O)(=O)c1ccn(n1)CCOc1cc-2ccn1 [Example 4]
[1]
  IC50: 5 to 10 µM
[2]
  IC50: 1 to 5 µM

## CC(C)c1cccc2c1CC(=O)NS(=O)(=O)c1cc(n(C(C)C)n1)CCOc1cc-2ccn1 [Example 10]
[1]
  IC50: 1 to 5 µM
[2]
  IC50: 1 to 5 µM

## CC(C)c1cccc2c1CC(=O)NS(=O)(=O)c1cc(cc(C(C)(C)O)c1)CCOc1cc-2ccn1 [Example 11]
[1]
  IC50: 1 to 5 µM
[2]
  IC50: 0.1 to 0.5 µM

## Cc1ccc(C(C)C)c2c1-c1ccnc(c1)OCC(C)(C)n1cc(F)c(n1)S(=O)(=O)NC(=O)C2 [Example 12]
[1]
  IC50: 0.5 to 1 µM
[2]
  IC50: 0.5 to 1 µM

## Cc1ccc(C(C)C)c2c1-c1ccnc(c1)OCCn1cc(F)c(n1)S(=O)(=O)NC(=O)C2 [Example 13]
[1]
  IC50: 1 to 5 µM
[2]
  IC50: 1 to 5 µM

## CC(C)c1cc(F)cc2c1CC(=O)NS(=O)(=O)c1nn(cc1F)C(C)(C)COc1cc-2ccn1 [Example 15]
[1]
  IC50: 1 to 5 µM
[2]
  IC50: 0.1 to 0.5 µM

## CC(C)(O)c1cc2cc(c1)S(=O)(=O)NC(=O)Cc1c(ccc3c1CCC3)-c1ccnc(c1)OCC2 [Example 17, 17-(2-hydroxypropan-2-yl)-22-oxa-14λ^6-thia-13,24-diazapentacyclo-[21.3.1.1^15,19.0^2,10.0^5,9]octacosa-1(26),2,4,9,15,17,19(28),23(27),24-nonaene-12,14,14-trione]
[1]
  IC50: 1 to 5 µM
[2]
  IC50: 0.5 to 1 µM

## COc1cn2nc1S(=O)(=O)NC(=O)Cc1c(cc(F)cc1C(C)C)-c1ccnc(c1)OCC2(C)C [Example 19]
[1]
  IC50: 0.5 to 1 µM
[2]
  IC50: 0.1 to 0.5 µM

## CC(C)c1cc(F)cc2c1CC(=O)NS(=O)(=O)c1nn(cc1F)C1(CC1)COc1cc-2ccn1 [Example 20]
[1]
  IC50: 1 to 5 µM
[2]
  IC50: 0.5 to 1 µM

## CC(C)c1cccc2c1CC(=O)NS(=O)(=O)c1cnn(c1)CCOc1cc-2ccn1 [Example 21]
[1]
  IC50: 5 to 10 µM
[2]
  IC50: 1 to 5 µM

## CC(C)c1cc(F)cc2c1CC(=O)NS(=O)(=O)c1cnn(c1)CCOc1cc-2ccn1 [Example 22]
[1]
  IC50: 5 to 10 µM
[2]
  IC50: 1 to 5 µM

## Cc1nn2cc1S(=O)(=O)NC(=O)Cc1c(cccc1C(C)C)-c1ccnc(c1)OCC2(C)C [Example 24]
[1]
  IC50: 1 to 5 µM
[2]
  IC50: 0.5 to 1 µM

## CC1(C)COc2cc(ccn2)-c2cccc(C3CC3)c2CC(=O)NS(=O)(=O)c2nn1cc2F [Example 27]
[1]
  IC50: 0.5 to 1 µM
[2]
  IC50: 1 to 5 µM

## CC(C)c1cccc2c1CC(=O)NS(=O)(=O)c1nn(cc1F)C(C)(C)CCOc1cc-2ccn1 [Example 31]
[1]
  IC50: 1 to 5 µM
[2]
  IC50: 1 to 5 µM

## CC(C)c1cccc2c1CC(=O)NS(=O)(=O)c1cn(cn1)C(C)(C)COc1cc-2ccn1 [Example 33]
[1]
  IC50: 1 to 5 µM
[2]
  IC50: 0.5 to 1 µM

## CC(C)c1cccc2c1CC(=O)NS(=O)(=O)c1cnn(n1)C(C)(C)COc1cc-2ccn1 [Example 36]
[1]
  IC50: 1 to 5 µM
[2]
  IC50: 1 to 5 µM

## CC(C)c1cccc2c1CC(=O)NS(=O)(=O)c1nn(c3ncccc13)C(C)(C)COc1cc-2ccn1 [Example 37]
[1]
  IC50: 1 to 5 µM
[2]
  IC50: 0.5 to 1 µM

## CC(C)c1cccc2c1CC(=O)NS(=O)(=O)c1nn(cc1F)-c1ncccc1COc1cc-2ccn1 [Example 38]
[1]
  IC50: 1 to 5 µM
[2]
  IC50: 1 to 5 µM

## CC(C)c1cc(F)cc2c1CC(=O)NS(=O)(=O)c1nn(c(C(=O)N(C)C)c1F)C(C)(C)COc1cc-2ccn1 [Example 39]
[1]
  IC50: 1 to 5 µM
[2]
  IC50: 1 to 5 µM

## CCN1CCc2c3nn(c2C1)C(C)(C)COc1cc(ccn1)-c1cc(F)cc(C(C)C)c1CC(=O)NS3(=O)=O [Example 40]
[1]
  IC50: 1 to 5 µM
[2]
  IC50: 1 to 5 µM

## CC(C)c1cc(F)cc2c1CC(=O)NS(=O)(=O)c1cc(C(=O)N(C)C)n(n1)C(C)(C)COc1cc-2ccn1 [Example 41]
[1]
  IC50: 1 to 5 µM
[2]
  IC50: 1 to 5 µM

## CC(C)c1cccc2c1CC(=O)NS(=O)(=O)c1ccn(n1)CCOc1cc-2cnn1 [Example 44, 6-(propan-2-yl)-18-oxa-11λ^6-thia-10,15,20,21,24-pentaazatetracyclo-[17.3.1.1^12,15.0^2,7]tetracosa-1(22),2(7),3,5,12(24),13,19(23),20-octaene-9,11,11-trione]
[1]
  IC50: 5 to 10 µM
[2]
  IC50: 1 to 5 µM
